Measurements reported in US11072596B2, “Poly(ADP-ribose) polymerase inhibitor, preparation method and use” (SELECTION BIOSCIENCE LLC, priority 2017, dated 2021).

Experiments:
[1] = Liver microsomal stability in vitro, rat; format: in vitro ADME; conditions: pH 7.4; rat liver microsomes 0.5 mg protein/mL, 1 μM test compound, 37° C.; read-out: Rat T1/2
Procedure: (§1) Evaluation of in vitro liver microsomal stability of the compound of the present disclosure was tested by the following method:
(§2) Buffer: 100 mM potassium phosphate buffer, pH 7.4; […] MgCl2.
(§3) Liver microsomes: human liver microsomes, Corning Cat No. 452117; Rat liver microsomes, Xenotech Cat No. R1000; Mouse liver microsomes, Xenotech Cat No. M1000; Dog liver microsomes, Xenotech Cat No. D1000; Liver microsomes of cynomolgus monkey, Corning Cat No. 452413, the final concentration was 0.5 mg protein/mL.
(§4) 1. Intermediate solution: 5 μL of compound or control in stock solution (10 mM) was diluted with 495 μL of methanol (concentration: 100 μM, 99% MeOH).
(§5) 2. Operating solution: the intermediate solution was diluted […] with 450 μL 100 mM potassium phosphate buffer (concentration: 10 μM, 9.9% MeOH).
(§6) 1. 10 μL of compound or control solution per well was added to all plates (T0, T5, T10, T20, T30, T60, NCF60) except matrix blank.
(§7) 2. Microsome solution was distributed to 96-well plates according to platemap for standby, 680 μL per well, and the mixture of microsome solution and the compound was incubated at 37° C. for about 10 minutes.
4. […]
(§8) 10. Data analysis: The peak area of the corresponding compound and internal standard was detected by LC-MS/MS, and the T1/2 of the compound was calculated by the following formula: […]

[2] = Liver microsomal stability in vitro, mouse; format: in vitro ADME; conditions: pH 7.4; mouse liver microsomes 0.5 mg protein/mL, 1 μM test compound, 37° C.; read-out: Mouse T1/2
Procedure: as §1, §2, §3, §4, §5, §6, §7
4. […]
as §8

[3] = Pharmacokinetic study in rats
Procedure: SD rats were used as test animals, and the drug concentrations in plasma at different times after intravenous and intragastric administration of the compounds of examples were determined by LC/MS/MS method(s) to study the pharmacokinetics of the compound in the present disclosure in rats
Healthy adult male SD (Sprague-Dawley) rats, 3 animals per test compound, 6-9 weeks old, weighing 250±50 g, were purchased from Shanghai SLAC Laboratory Animal Co., Ltd.
The appropriate amount of sample was weighed out, 0.5% Methocel/2% tween 80 was added to the final volume, and 2 mg/mL was prepared for intragastric administration.
Each 3 male SD rats of each test compound were taken by intragastric administration at a dosage of 10 mg/kg after fasting overnight.
Blood samples of each animal were collected at different time points 0.083-24 h from jugular vein puncture after administration, K2-EDTA anticoagulation, centrifugation, and blood plasma were collected, frozen at −70° C. until LC/MS/MS analysis.

MDA-MB-436 cells = experiment: Pharmacodynamic study on mouse MDA-MB-436 model; format: in vivo, BALB/c nude mice; conditions: for T/C / TGI / Tumor volume (day 39) / Tumor volume (day 0): MDA-MB-436 in nude mice; for T/C / TGI / Tumor volume (day 39) / rate of test animals in which the tumor completely disappeared: 50 mg/kg PO x 18 days; for T/C / TGI / Tumor volume (day 39): day 39; for Tumor volume (day 0): day 0, before dosing; for rate of test animals in which the tumor completely disappeared: observed until the 39th day; for inhibitory effect on the tumor growth, in words: 50 mg/kg, continuous PO administration for 18 days
Procedure: BALB/c nude mice, aged 6-8 weeks old, weighing 18-22 g, female, provided by Shanghai Lab Animal Research Center (Shanghai Xipuer-Beikai) with the animal certificate no: 20130016001914.
Human breast cancer MDA-MB-436 cells (ATCC, Manacas, Va., Article number (Art. No.): ATCC-HTB-130) were cultured in vitro in monolayer under the conditions of RPMI1640 medium with 10% fetal bovine serum and 37° C. 5% CO2 incubator. The passage was routinely digested with trypsin-EDTA twice a week. When the cell saturation was up to 80%-90% and reached the requirement, the cells were collected, counted and inoculated. 0.2 mL (1×10^7) MDA-MB-436 cells (added with matrix gel, volume ratio 1:1) were subcutaneously inoculated into the right back of each mouse, and mice were randomly grouped and dosed when the average tumor volume reached 157 mm^3.
2.5 g of methylcellulose was slowly added into 80 mL of deionized water in a suitable container under stirring, stirred until uniform, 10 mL of Tween 80 was added to the solution, stirred until uniform, continued to add deionized water to 500 mL, and stirred until uniform to obtain a vehicle solution. Then an appropriate amount of p-toluenesulfonate of example 23 was weighed, and an appropriate amount of the above vehicle solution was added and vortexed until uniform.
The subcutaneous tumor volumes of nude mice were measured 2-3 times a week, and the mice were weighed, and the data were recorded.
Experimental evaluation index: tumor growth inhibition rate TGI (%) or relative tumor proliferation rate T/C (%) was used for evaluation, wherein T was the experimental group, and C was the control group.
Calculation of relative tumor proliferation rate: If T>T0, T/C (%)=(T−T0)/(C−C0)×100%, if T<T0, T/C (%)=(T−T0)/T0×100%, wherein T and C were tumor volumes at the end of the experiment; T0 and C0 were tumor volumes at the beginning of the experiment.

[4] = Liver microsomal stability in vitro, human; format: in vitro ADME; conditions: for half-life at 1 μM: pH 7.4, human liver microsomes 0.5 mg protein/mL, 1 μM test compound, 37° C., read-out: Human T1/2
Procedure: as §1, §2, §3, §4, §5, §6, §7
4. After preheating, NADPH regeneration system was distributed to 96-well plate, 90 μL per well, for standby according to plate map, which was added to each plate to start the reaction, 10 μL per well. The final concentration of each component in the incubation medium includes: 0.5 mg protein/mL microsome, 1 μM test compound, […], 0.99% methanol and 0.01% DMSO.
6. The above-prepared stop solution (4° C. cooling) was added to stop the reaction, 300 μL per well.
9. During centrifugation, eight new 96-well plates were loaded with 300 μL of HPLC water, and then 100 μL of supernatant was transferred for mixing, followed by LC/MS/MS detection.
as §8

[5] = SD rats, table head: Dose PO (10 mg/kg)
[6] = male, Sprague-Dawley, rat, plasma, po, 10 mg/kg, SD rats, PO 10 mg/kg
[7] = male, Sprague-Dawley, rat, in vivo, po, 10 mg/kg

Compound | half-life at 1 μM [1] [h] | half-life at 1 μM [2] [h] | T/C (MDA-MB-436 cells) [%] | TGI (MDA-MB-436 cells) [%] | Tumor volume (day 39) (MDA-MB-436 cells) [mm^3] | Tumor volume (day 0) (MDA-MB-436 cells) [mm^3] | rate of test animals in which the tumor completely disappeared (MDA-MB-436 cells; nude mouse MDA-MB-436 model) | inhibitory effect on the tumor growth, in words (MDA-MB-436 cells; nude mouse MDA-MB-436 model) | half-life at 1 μM [4] [h] | also measured
NC(=O)c1cccc2cn(-c3ccc([C@@H]4CCCNC4)cc3)nc12 [Niraparib, reference compound] | 1.76 | 1.83 | 1.5 | 98.5 | 187 | 157 | zero | very strong inhibitory effect | > 2.42 | F ([3]; SD rats, PO 10 mg/kg): 65.0%; CL [3, 5]: 28.7 mL/min/kg; Vdss [3, 5]: 8.18 L/kg; AUC [3, 6]: 4540 ng·h/mL; Cmax ([3]; male, Sprague-Dawley, rat, plasma, po, 10 mg/kg, Cmax, SD rats, PO 10 mg/kg): 509 ng/mL; MRT [3, 6]: 8.59 h; half-life ([3]; male, Sprague-Dawley, rat, plasma, po, 10 mg/kg, T1/2, SD rats, PO 10 mg/kg): 3.4 h
NC(=O)c1cccc2cn(-c3ccc([C@]4(F)CCCNC4)cc3)nc12 (single isomer, unassigned) [Example 23, (R or S)-2-(4-(3-fluoropiperidin-3-yl)phenyl)-2H-indazole-7-carboxamide] | 1.07 | 1.02 | −68 | 168 | 49 | 157 | 50% | very strong inhibitory effect | > 2.42 | F [3, 7]: 49.7%; T1/2 [3, 7]: 16.0 h; AUC [3, 7]: 3060 ng·h/mL; MRT [3, 7]: 7.12 h; anti-tumor activity compared with positive control Niraparib, in words (MDA-MB-436 cells; nude mouse MDA-MB-436 model, 50 mg/kg PO for 18 days): stronger; metabolic stability in human liver microsomes, in words ([4]; human liver microsomes): excellent metabolic stability
